Reference: patent publication EP0188169A1, “Bis-2-(4-hydroxy-2-isopropyl-5-methyl-phenoxy)-ethyl amines, process for their synthesis and pharmaceutical preparations containing them” (CORTIAL S.A., priority 1984, dated 1986)
Read-outs that look alike come from different tables or passages of the source.

Columns and labels:
[1] = test system: anaphylaxie passive cutanée; assay: Antiallergic activity: passive cutaneous anaphylaxis test; assay type: in vivo; details: rat, oral
Protocol: Activité antiallergigue : dans le test de l'anaphylaxie passive cutanée, le COR28 35 administré à 5 mg/kg par voie orale chez le rat entraine 60% d'activité. La prométhazine, administrée dans les mêmes conditions, entraine 53% d'activité à la dose de 10 mg/kg.

[2] = test system: hypertension induite par la phényléphrine; assay: Alpha-blocking activity in vivo: antagonism of phenylephrine-induced hypertension in pithed, bivagotomised rats (i.v.); set-up: species or system rats amyélés et bivagotomisés; details: for ED50: Rattus norvegicus, iv, read-out: DE50 (the source's name)
Description: ln vivo l'activité alpha bloquante est appréciée par la détermination de l'antagonisme de l'hypertension induite par la phényléphrine. Le produit à tester est administré par voie intraveineuse à des rats amyélés et bivagotomisés selon la technique de J.S.Gillespie et T.S. Muir (Br.J. Pharmac. Chemother., 1967, 30, 78-87). On indique ci-après pour le COR28 35, en fonction de la dose administrée, l'activité maximale et le temps au bout duquel l'activité résiduelle est égale à 50% de l'activité maximale : 4,42.10^-7 M/kg, --77,8%. 30 mn; 10^-6 M/kg, -94,5%, 55 mn; 3,53.10^-6 M/kg, -97,1%, 90 mn. La DE50 déterminée dans ces conditions pour le COR28 35 est de 1,48.10^-8 mole/kg au bout de 2 mn, 6,77.10^-7 mole/kg au bout de 30 mn et 1,87.10^-6 mole/kg au bout de 60 mn.

[3] = test system: contractions de strips aortiques isolés de lapin induites par la noradrénaline; assay: Alpha-blocking activity in vitro: antagonism of noradrenaline-induced contractions of isolated rabbit aortic strips; assay type: cell-based; details: Oryctolagus cuniculus, 1 h; noradrenaline 2.10^-6 mole/l; compound added 60 mn before the agonist; limits in brackets; read-out: CI50 (concentration inhibant 50% des contractions)
Description: Activité alohabloauante : In vitro l'activité alphabloquante est appréciée par la détermination de l'antagonisme des contractions de strips aortiques isolés de lapin induites par la noradrénaline employée à la concentration de 2.10^-6 mole/l selon une technique dérivée de celle de Furchgott et Bhadrakom (J. Pharmacol., 1953, 108, 129-43). L'activité maximale est obtenue quand le COR28 35 est introduit dans le bain 60 mn avant l'agoniste. La CI50 (concentration inhibant 50% des contractions) est égale dans ces conditions à 1,52.10-' (1,12.10^-7 -2,07.10-') mole/l.

souris = assay: Acute toxicity (mortality, LD50) in mice; assay type: in vivo; details: mouse
[4] = Acute toxicity (mortality, LD50) in mice; assay type: in vivo; details: in vivo, mouse
[5] = test system: tremblements musculaires produits chez la souris par l'administration de 0,5 mg/kg d'oxotrémorine; assay: Anticholinergic activity: oxotremorine-induced muscle tremors in mice; assay type: in vivo; details: mouse, intraperitoneal, assessed one hour after administration, oxotremorine 0,5 mg/kg s.c.
Protocol: Activité anticholineraiaue : l'activité inhibitrice des produits de la présente invention vis à vis des tremblements musculaires produits chez la souris par l'administration de 0,5 mg/kg d'oxotrémorine par voie sous cutanée est déterminée. L'eftet est apprécié une heure après l'administration par voie intrapéritonéale des produits à tester; dans ces conditions, le COR28 35 est actif à la dose de 5mg/kg.

[6] = test system: souris rendue hy- percholestérotémique; assay: Hypolipidaemic activity in mice made hypercholesterolaemic by diet; assay type: in vivo; details: mouse, oral, 200 mg/kg on days 6 and 7 of the diet
Protocol: Activité hvoolioidémiante : chez la souris rendue hy- percholestérotémique par un régime riche en cholestérol et acide cholique pendant 7 jours, l'administration de 200 mg/kg de COR28 35 par voie orale, le 6° et le 7° jour, entraine une diminution du cholestérol sérique de 17% et une diminution des HP-bétalipoprotéines de 27% accompagnées d'une diminution du rapport VLDL + LDL/cholestérol.

[7] = test system: contraction induite par 5.10^-7g/ml de sérotonine sur iléon isolé de cobaye; assay: Antiserotoninergic activity: serotonin-induced contraction of isolated guinea-pig ileum; assay type: cell-based; details: serotonin 5.10^-7g/ml; compound in contact 15 mn before the agonist; limits in brackets; read-out: CI50 (ou concentration inhibant 50% des contractions)
Description: Activité antisérotoninergigue : le COR28 35 inhibe in vitro la contraction induite par 5.10^-7g/ml de sérotonine sur iléon isolé de cobaye. L'effet maximum est obtenu quand le COR28 35 est mis au contact de l'organe isolé 15 mn avant d'introduire l'agoniste. La CI50 (ou concentration inhibant 50% des contractions) est dans ces conditions de 1,58.10^-7(1,00.10^-7-2,51.10^-7) mole/l.

[8] = test system: rats spontanément hypertendus; assay: Antihypertensive activity in spontaneously hypertensive rats (oral); assay type: in vivo
Protocol: Activité antihvoertensive : le produit à tester est administré par voie orale à des rats spontanément hypertendus. La pression artérielle est mesurée de façon indirecte en utilisant un sphygmomanomètre. Pour le COR28 35 administré à la dose de 100 mg/kg/j pendant 2 jours, la chute de pression maximale observée est de 14% le premier jour de traitement, 1 heure après le gavage. […] Administré dans les mêmes conditions à la dose de 50 mg/kg/j, la chute de pression artérielle maximale est de 15% 1 heure après gavage.

[9] = test system: effet hypertenseur induit par 4.10-' mg/kg de phényléphrine; assay: Alpha-blocking activity in conscious normal rats: antagonism of the phenylephrine pressor effect (oral); assay type: in vivo, rat Sprague-Dawley normal vigile
Description: L'activité alphabloquante des produits selon la présente invention à également été déterminée chez le rat Sprague-Dawley normal vigile. Les veines jugulaires et les artères carotides des animaux sont cathétérisées sous anesthésie à l'éther. Après récupération d'une heure, la pression artérielle et la fréquence cardiaque sont enregistrées de façon continue. L'activité des produits à tester, administrés par voie oral, vis à vis de l'effet hypertenseur induit par 4.10-' mg/kg de phényléphrine est déterminée. On indique ci-après pour le COR28 35, en fonction de la dose administrée, l'activité maximale et le temps au bout duquel l'activité résiduelle est égale à 50% de l'activité maximale : 5 mg/kg, -38,75%, 66 mm; 10 mg/kg, --37.18%. 65 mn; 20 mg/kg, -66,37%, 66 mn.

[10] = test system: contractions induites par 2,5.10^-8 g/ml d'angiotensine I sur des préparations de segments d'iléon de cobaye; assay: Inhibition of angiotensin I-induced contractions of guinea-pig ileum segments; assay type: cell-based; details: concentration 10-' g/ml; angiotensin I 2,5.10^-8 g/ml added 2 mn after the compound
Description: L'activité inhibitrice des produits de la présente invention vis à vis des contractions induites par 2,5.10^-8 g/ml d'angiotensine I sur des préparations de segments d'iléon de cobaye a été déterminée. L'angiotensine 1 est introduite dans le bain 2 mn après le produit à tester. Dans ces conditions, le COR28 35 entraine 51% d'inhibition des contractions à la concentration de 10-' g/ml.

## CC(CN1c2ccccc2Sc2ccccc21)N(C)C (centres unmarked) [prométhazine, reference compound]
[1]; 10 mg/kg
  activité: 53%

## Cc1cc(OCCN(C)CCOc2cc(C)c(O)cc2C(C)C)c(C(C)C)cc1O [COR28 35]
[2]; 2 min, i.v., after 2 mn
  ED50: 0.0148 µmol/kg
[2]; 0.5 h, i.v., after 30 mn
  ED50: 0.677 µmol/kg
[2]; 1 h, i.v., after 60 mn
  ED50: 1.87 µmol/kg
[2]; i.v., 3,53.10^-6 M/kg
  activité maximale: -97,1%
  temps au bout duquel l'activité résiduelle est égale à 50% de l'activité maximale: 90 mn
[2]; i.v., 4,42.10^-7 M/kg
  temps au bout duquel l'activité résiduelle est égale à 50% de l'activité maximale: 30 mn
[2]; i.v., 10^-6 M/kg
  activité maximale: -94,5%
  temps au bout duquel l'activité résiduelle est égale à 50% de l'activité maximale: 55 mn
[3]
  IC50: 0.152 µM
souris; intraperitoneal, 500 mg/kg
  mortalité: aucune mortalité
souris; oral, 300 mg/kg
  mortalité: aucune mortalité
[4]; ip, intraperitoneal, 1000 mg/kg, read-out: mortalité
  mortality: 40%
[4]; intravenous, limits in brackets, read-out: DL50 (the source's name)
  LD50: 53.5 mg/kg
[1]; 5 mg/kg
  activité: 60%
[5]
  activité inhibitrice vis à vis des tremblements musculaires: actif
[6]
  diminution des HP-bétalipoprotéines: 27%
  diminution du cholestérol sérique: 17%
  rapport VLDL + LDL/cholestérol: diminution
[7]
  IC50: 0.158 µM
[8]; 50 mg/kg/j, 1 hour after gavage
  chute de pression artérielle maximale: 15%
[8]; 100 mg/kg/j for 2 days, 6 hours after gavage on the second day
  pression par rapport au lot témoin: significativement abaissée
[8]; 100 mg/kg/j for 2 days, first day of treatment, 1 hour after gavage
  chute de pression maximale observée: 14%
[9]; 5 mg/kg
  activité maximale: -38,75%
  temps au bout duquel l'activité résiduelle est égale à 50% de l'activité maximale: 66 min
[9]; 10 mg/kg
  temps au bout duquel l'activité résiduelle est égale à 50% de l'activité maximale: 65 mn
[9]; 20 mg/kg
  activité maximale: -66,37%
  temps au bout duquel l'activité résiduelle est égale à 50% de l'activité maximale: 66 mn
[10]
  inhibition des contractions: 51%
